Test results taken from patent EP4741392A1, “1H-PYRAZOLO[4,3-C]PYRIDINE COMPOUND, AND COMPOSITION THEREOF AND USE THEREOF” (Shenzhen TargetRx Co., Ltd., priority 2023, dated 2025).

Tests used:
Assay type in all cases: biochemical
EGFR = molecular target: T1, EGFR (Homo sapiens, UniProt P00533); assay: Kinase activity inhibition assay (HTRF TK Kit), selectivity
T1 construct: purchased Carna 08-115
Summary of the method: (§1)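 Percent inhibition, derived from time-resolved FRET ratios (665/620 nm) relative to no-enzyme and DMSO wells, was fitted against log concentration to give IC50. Reactions contained kinase, substrate and ATP at room temperature, followed by 1 h detection.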

TEC = molecular target: T2, TEC (Homo sapiens, UniProt P42680); assay: as above
T2 construct: purchased Carna 08-182
T2 sequence (P42680 1-631): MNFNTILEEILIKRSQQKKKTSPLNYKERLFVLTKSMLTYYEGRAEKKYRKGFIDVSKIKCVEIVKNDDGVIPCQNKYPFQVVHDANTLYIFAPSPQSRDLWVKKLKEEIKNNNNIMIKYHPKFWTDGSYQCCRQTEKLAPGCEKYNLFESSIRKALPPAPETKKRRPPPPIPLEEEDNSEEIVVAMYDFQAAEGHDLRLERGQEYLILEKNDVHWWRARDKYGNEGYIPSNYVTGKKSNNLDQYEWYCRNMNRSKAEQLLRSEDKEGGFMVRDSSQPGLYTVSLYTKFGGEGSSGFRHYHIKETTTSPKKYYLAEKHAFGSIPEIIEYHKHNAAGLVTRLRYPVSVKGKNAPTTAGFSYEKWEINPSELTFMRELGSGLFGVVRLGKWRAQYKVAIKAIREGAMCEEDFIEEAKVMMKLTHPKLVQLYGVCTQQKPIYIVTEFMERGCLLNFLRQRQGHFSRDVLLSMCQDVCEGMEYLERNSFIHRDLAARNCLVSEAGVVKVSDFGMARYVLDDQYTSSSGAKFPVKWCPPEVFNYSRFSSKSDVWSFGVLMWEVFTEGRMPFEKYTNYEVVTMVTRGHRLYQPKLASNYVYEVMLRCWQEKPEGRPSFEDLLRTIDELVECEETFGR
Summary of the method: as §1

ITK = molecular target: T3, ITK (Homo sapiens, UniProt Q08881); assay: as above
T3 construct: purchased Carna 08-181
T3 sequence (Q08881 1-620): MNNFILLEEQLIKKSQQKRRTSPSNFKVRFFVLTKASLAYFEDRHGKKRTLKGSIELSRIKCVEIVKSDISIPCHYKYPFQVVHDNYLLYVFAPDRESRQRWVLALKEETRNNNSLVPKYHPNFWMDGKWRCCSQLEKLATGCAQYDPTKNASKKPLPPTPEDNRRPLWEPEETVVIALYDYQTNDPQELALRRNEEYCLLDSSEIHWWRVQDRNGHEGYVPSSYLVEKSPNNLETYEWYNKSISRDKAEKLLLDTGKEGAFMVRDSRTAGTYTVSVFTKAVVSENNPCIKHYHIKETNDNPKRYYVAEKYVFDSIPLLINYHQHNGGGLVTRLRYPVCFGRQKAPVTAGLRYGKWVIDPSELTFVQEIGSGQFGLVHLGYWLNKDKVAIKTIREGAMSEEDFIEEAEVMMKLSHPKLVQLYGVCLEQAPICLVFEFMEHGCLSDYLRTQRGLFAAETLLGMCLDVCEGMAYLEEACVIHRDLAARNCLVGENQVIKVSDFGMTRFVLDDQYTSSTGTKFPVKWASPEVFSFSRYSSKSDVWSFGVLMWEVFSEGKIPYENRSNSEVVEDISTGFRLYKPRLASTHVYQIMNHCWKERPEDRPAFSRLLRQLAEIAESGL
Summary of the method: as §1

BTK kinase = molecular target: T4, BTK kinase (Homo sapiens, UniProt Q06187); assay: Kinase activity inhibition assay (HTRF TK Kit)
T4 construct: purchased Invitrogen PV3587
Summary of the method: as §1

BTK C481S = molecular target: T5, BTK C481S (Homo sapiens, UniProt Q06187, C481S); assay: Kinase activity inhibition assay (HTRF TK Kit)
T5 construct: purchased Carna 08-547
Summary of the method: as §1

BTK T474I = molecular target: T6, BTK T474I (Homo sapiens, UniProt Q06187, T474I); assay: Kinase activity inhibition assay (HTRF TK Kit)
T6 construct: purchased SignalChem B10-12HH
Summary of the method: as §1

T4 sequence (Q06187 whole entry): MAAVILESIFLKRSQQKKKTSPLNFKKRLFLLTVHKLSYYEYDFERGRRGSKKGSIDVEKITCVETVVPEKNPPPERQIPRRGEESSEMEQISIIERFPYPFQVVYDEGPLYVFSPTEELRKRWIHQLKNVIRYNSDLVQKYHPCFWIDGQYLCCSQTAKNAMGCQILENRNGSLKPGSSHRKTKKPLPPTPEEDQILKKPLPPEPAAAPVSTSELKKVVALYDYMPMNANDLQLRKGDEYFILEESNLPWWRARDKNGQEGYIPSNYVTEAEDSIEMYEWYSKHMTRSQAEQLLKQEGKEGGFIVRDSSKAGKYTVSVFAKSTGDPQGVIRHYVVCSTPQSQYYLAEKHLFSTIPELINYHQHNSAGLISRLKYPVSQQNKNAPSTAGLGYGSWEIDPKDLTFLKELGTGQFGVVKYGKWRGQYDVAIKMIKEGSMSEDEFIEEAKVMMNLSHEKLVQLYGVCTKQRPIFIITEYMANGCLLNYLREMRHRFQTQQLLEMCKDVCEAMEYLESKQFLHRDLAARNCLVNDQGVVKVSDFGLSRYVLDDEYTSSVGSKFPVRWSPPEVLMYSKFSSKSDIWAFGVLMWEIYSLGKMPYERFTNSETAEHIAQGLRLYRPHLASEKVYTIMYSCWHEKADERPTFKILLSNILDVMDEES
T5 sequence (Q06187 whole entry C481S): as the sequence (Q06187 whole entry) above, with C481S counted along it
T6 sequence (Q06187 whole entry T474I): as the sequence (Q06187 whole entry) above, with T474I counted along it
T1 sequence (P00533 669-1210 limits assumed): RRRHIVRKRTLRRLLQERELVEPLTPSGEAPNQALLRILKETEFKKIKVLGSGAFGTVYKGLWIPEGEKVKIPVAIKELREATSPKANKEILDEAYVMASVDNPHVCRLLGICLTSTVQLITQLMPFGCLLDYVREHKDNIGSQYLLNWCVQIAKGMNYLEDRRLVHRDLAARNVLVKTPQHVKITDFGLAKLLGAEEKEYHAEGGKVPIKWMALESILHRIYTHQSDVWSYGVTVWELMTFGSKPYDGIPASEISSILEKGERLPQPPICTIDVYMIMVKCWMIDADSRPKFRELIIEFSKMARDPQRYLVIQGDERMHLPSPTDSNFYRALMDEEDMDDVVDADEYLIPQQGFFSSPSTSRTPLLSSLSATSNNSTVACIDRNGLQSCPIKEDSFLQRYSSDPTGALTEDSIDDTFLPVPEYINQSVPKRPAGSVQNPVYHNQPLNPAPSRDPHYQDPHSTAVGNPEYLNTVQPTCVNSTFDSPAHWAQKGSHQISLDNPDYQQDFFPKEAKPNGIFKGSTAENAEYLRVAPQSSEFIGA

| SMILES | IC50 (EGFR) [nM] | IC50 (TEC) [nM] | IC50 (ITK) [nM] | IC50 (BTK kinase) [nM] | IC50 (BTK C481S) [nM] | IC50 (BTK T474I) [nM] |
| --- | --- | --- | --- | --- | --- | --- |
| COc1ccc(F)cc1C(=O)NCc1ccc(-c2nc(C)c(-c3ncccn3)c3[nH]nc(N)c23)cc1 [Example 84, N-(4-(3-amino-6-methyl-7-(pyrimidin-2-yl)-1H-pyrazolo[4,3-c]pyridin-4-yl)benzyl)-5-fluoro-2-methoxybenzamide] | > 500 | > 500 | > 500 | 5 to 50 | 5 to 50 | 50 to 500 |
| COc1ccc(F)cc1C(=O)NCc1ccc(-c2nc(C(F)F)c(-c3ncccn3)c3[nH]nc(N)c23)cc1 [Example 85, N-(4-(3-amino-6-(difluoromethyl)-7-(pyrimidin-2-yl)-1H-pyrazolo[4,3-c]pyridin-4-yl)benzyl)-5-fluoro-2-methoxybenzamide] | > 500 | 50 to 500 | > 500 | 1 to 5 | 1 to 5 | 50 to 500 |
| COc1ccc(F)cc1C(=O)NCc1ccc(-c2nc(C3CCSCC3)cc3[nH]nc(N)c23)cc1 [Example 91, N-(4-(3-amino-6-(tetrahydro-2H-thiopyran-4-yl)-1H-pyrazolo[4,3-c]pyridin-4-yl)benzyl)-5-fluoro-2-methoxybenzamide] | 50 to 500 | 50 to 500 | > 500 | 1 to 5 | 1 to 5 | 50 to 500 |
| C=CC(=O)N1CCCC(c2cc3[nH]nc(N)c3c(-c3ccc(CNC(=O)c4cc(F)ccc4OC)cc3)n2)C1 (stereo not drawn) [Example 96, N-(4-(6-(1-acryloylpiperidin-3-yl)-3-amino-1H-pyrazolo[4,3-c]pyridin-4-yl)benzyl)-5-fluoro-2-methoxybenzamide] | 50 to 500 | 5 to 50 | > 500 | 1 to 5 | 1 to 5 | 5 to 50 |
| COc1ccc(F)cc1C(=O)NCc1ccc(-c2ncc(-c3nccn4nccc34)c3[nH]nc(N)c23)cc1 [Example 98, N-(4-(3-amino-7-(pyrazolo[1,5-a]pyrazin-4-yl)-1H-pyrazolo[4,3-c]pyridin-4-yl)benzyl)-5-fluoro-2-methoxybenzamide] | 50 to 500 | 5 to 50 | > 500 | 1 to 5 | 1 to 5 | 50 to 500 |
| COc1ccc(F)cc1C(=O)NCc1ccc(-c2ncc(-c3nc4ccccc4s3)c3[nH]nc(N)c23)cc1 [Example 99, N-(4-(3-amino-7-(benzo[d]thiazol-2-yl)-1H-pyrazolo[4,3-c]pyridin-4-yl)benzyl)-5-fluoro-2-methoxybenzamide] | 50 to 500 | 5 to 50 | > 500 | 5 to 50 | 5 to 50 | 50 to 500 |

Second part, the compound after the results:

| IC50 (EGFR) [nM] | IC50 (TEC) [nM] | IC50 (ITK) [nM] | IC50 (BTK kinase) [nM] | IC50 (BTK C481S) [nM] | IC50 (BTK T474I) [nM] | SMILES |
| --- | --- | --- | --- | --- | --- | --- |
| 50 to 500 | 5 to 50 | > 500 | 1 to 5 | 1 to 5 | 50 to 500 | COc1ccc(F)cc1C(=O)NCc1ccc(-c2ncc(-c3nc4cccnc4s3)c3[nH]nc(N)c23)cc1 [Example 100, N-(4-(3-amino-7-(thiazolo[5,4-b]pyridin-2-yl)-1H-pyrazolo[4,3-c]pyridin-4-yl)benzyl)-5-fluoro-2-methoxybenzamide] |
| 50 to 500 | 5 to 50 | 50 to 500 | 1 to 5 | 1 to 5 | 5 to 50 | CCN1CCc2nc(-c3cnc(-c4ccc(CNC(=O)c5cc(F)ccc5OC)cc4)c4c(N)n[nH]c34)sc2C1 [Example 101, N-(4-(3-amino-7-(5-ethyl-4,5,6,7-tetrahydrothiazolo[5,4-c]pyridin-2-yl)-1H-pyrazolo[4,3-c]pyridin-4-yl)benzyl)-5-fluoro-2-methoxybenzamide] |
| 50 to 500 | > 500 | > 500 | 5 to 50 | 5 to 50 | > 500 | COc1ccc(F)cc1C(=O)NCc1ccc(-c2ncc(-c3ccc4c(n3)nc3n4CCOC3)c3[nH]nc(N)c23)cc1 [Example 102, N-(4-(3-amino-7-(6,7-dihydro-9H-pyrido[2',3':4,5]imidazo[2,1-c][1,4]oxazin-2-yl)-1H-pyrazolo[4,3-c]pyridin-4-yl)benzyl)-5-fluoro-2-methoxybenzamide] |
